Literature values, collected in US9062086B2, “N-acetyl L-cysteine chelates and methods for making and using the same” (Viva Pharmaceutical, Inc., priority 2013, dated 2015).

How the values were obtained:
[1] = target: c-Glutamylcysteine synthetase (Homo sapiens, UniProt P48506); details: read-out: Ki (feedback inhibition by GSH); background statement
[2] = much higher than NAC; background statement

Chain of c-Glutamylcysteine synthetase (P48506 whole entry): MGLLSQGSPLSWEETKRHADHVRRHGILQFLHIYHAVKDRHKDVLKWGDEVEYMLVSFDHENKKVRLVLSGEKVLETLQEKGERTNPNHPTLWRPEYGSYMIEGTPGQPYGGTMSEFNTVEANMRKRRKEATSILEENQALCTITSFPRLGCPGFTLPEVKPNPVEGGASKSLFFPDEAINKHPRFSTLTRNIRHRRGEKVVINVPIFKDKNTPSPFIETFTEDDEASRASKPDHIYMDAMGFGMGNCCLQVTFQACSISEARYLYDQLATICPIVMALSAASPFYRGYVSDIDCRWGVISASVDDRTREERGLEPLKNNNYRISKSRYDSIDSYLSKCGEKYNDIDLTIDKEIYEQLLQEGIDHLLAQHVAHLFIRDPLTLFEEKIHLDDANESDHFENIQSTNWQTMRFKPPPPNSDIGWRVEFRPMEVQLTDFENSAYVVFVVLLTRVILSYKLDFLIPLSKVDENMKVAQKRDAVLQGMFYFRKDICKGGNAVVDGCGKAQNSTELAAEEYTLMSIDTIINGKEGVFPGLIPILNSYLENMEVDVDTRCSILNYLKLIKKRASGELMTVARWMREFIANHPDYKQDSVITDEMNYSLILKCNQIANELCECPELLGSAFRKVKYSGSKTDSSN

Ki [1] | bioavailability [2] | Compound
~1.5 mM |  | N[C@@H](CCC(=O)N[C@@H](CS)C(=O)NCC(=O)O)C(=O)O [GSH, glutathione]
 | around 60% | CCOC(=O)[C@H](CS)NC(C)=O [NACET, N-acetylcysteine ethyl ester]
